Tested on: C2C12 myotubes
Assay: QRT-PCR of fatty acid transport, oxidation, mitochondrial biogenesis genes in C2C12 myotubes
Format: cell-based, mouse
Conditions: 10 nM, 12 or 24 hours
Protocol: A. ULMA induces expression of fatty acid transport, oxidation, mitochondrial biogenesis and energy dissipation related genes. C2C12 myotubes in 6 well plates were treated with 10 nM ULMA or vehicle (designated as 0 h; 0.1% vol/vol DMSO) for 12 h or 24 h. Following treatment, RNA was extracted and 1 μg RNA from each well was used to prepare cDNA and the cDNAs were then used for quantitative real-time PCR for indicated genes. Beta-actin was used as normalizing control. The relative mRNA level was quantitated using ddCT method and plotted as fold activity over vehicle treated control (0 h). Data is mean±SEM of 4-6 independent experiments performed in triplicates. *p<0.05, **p<0.01, ***p<0.001 compared to vehicle (DMSO) treated controls as determined by two tailed unpaired student's t-test.
Adiponectin enhances transcription of genes regulating fatty acid transport, fatty acid-oxidation and mitochondrial uncoupling proteins in skeletal muscle and myotubes (T. Kadowaki, T. Yamauchi, N. Kubota, K. Hara, K. Ueki, K. Tobe. J Clin Invest. 116(7): 1784-92. 2006; S. Dridi, M. Taouis. Journal of Nutritional Biochemistry 20 (2009): 831-839. 2009; M. Iwabu, T. Yamauchi, M. Okada-Iwabu, K. Sato, T. Nakagawa, M. Funata, M. Yamaguchi, S. Namiki, R. Nakayama, M. Tabata, H. Ogata, N. Kubota, I. Takamoto, Y. K. Hayashi, N. Yamauchi, H. Waki, M. Fukayama, I. Nishino, K. Tokuyama, K. Ueki, Y. Oike, S. Ishii, K. Hirose, T. Shimizu, K. Touhara, T. Kadowaki. Nature; 464(7293):1313-1319. 2010). The ability of ULMA to influence expression of these genes were checked in c2c12 myotubes. C2C12 myotubes in 6 well plates were treated with 10 nM ULMA or vehicle (DMSO) for 12 hours or 24 hours. Following treatment, the cells were washed with ice-cold PBS and RNA was extracted using Trizol (Ambion) according to manufacturer's instructions. The RNAs were quantitated using a spectrophotometer (nanophotometer; Implen GMBH) and 1 μg RNA was used to prepare cDNA using a cDNA synthesis kit (Applied Biosystems). cDNAs were then used for quantitative real-time PCR for indicated genes (FIG. 3A) using Veriquest SYBR green QRT-PCR mastermix (US Biologicals) and a Roche lightcycler 480 thermal cycler (Roche Diagnostics). Beta-actin was used as normalizing control. The relative mRNA level was quantitated using ddCT method. […] Adiponectin is also known to induce muscle and adipose glucose transporter 4 (GLUT4) expressions; and the ability of ULMA to induce the expression of GLUT4, PPAR and PGC-1α was investigated by western blotting. C2C12 myotubes in 10 cm dish were treated with vehicle (DMSO) or 10 nM ULMA in DMSO for 24 hours or 48 hours followed by western blotting as described [S. K. Dwivedi, N. Singh, R. Kumari, J. S. Mishra, S. Tripathi, P. Banerjee, P. Shah, V. Kukshal, A. M. Tyagi, A. N. Gaikwad, R. K. Chaturvedi, D. P. Mishra, A. K. Trivedi, S. Sanyal, N. Chattopadhyay, R. Ramachandran, M. I. Siddiqi, A. Bandyopadhyay, A. Arora, T. Lundasen, S. P. Anakk, D. D. Moore, S. Sanyal. Mol Endocrinol. 25(6): 922-932. 2011).

O=C1c2c(cc(O)c([C@@H]3O[C@H](CO)[C@@H](O)[C@H](O)[C@H]3O)c2O)O[C@@H](c2ccc(O)c(O)c2)[C@@H]1O [ULMA, (2S,3S)-(+)-3′,4′,5,7-tetrahydroxydihydroflavonol-6-C-β-D-glucopyranoside]
induced expression: CD36 mRNA expression | FABP3 mRNA expression | PGC-1α mRNA expression | PPARα mRNA expression
enhanced expressions: ACOX1 mRNA expression | CPT1B mRNA expression | fatty acyl CoA synthetase mRNA expression
induced expressions: uncoupling protein 2 mRNA expression | uncoupling protein 3 mRNA expression

Source: patent publication US20160193240A1, “Ulmoside-A: Useful For Prevention Or Cure Of Metabolic Diseases” (COUNCIL OF SCIENTIFIC & INDUSTRIAL RESEARCH, priority 2013, published 2016)
